The values below come from US8513250B2 (Laboratoire Biodim, priority 2007, dated 2013).

Molecules are shown by their SMILES. Where a name gives a salt, the structure may show the parent alone.

The target in the first assay is T1, DltA enzyme (Streptococcus agalactiae serotype III, UniProt Q8VM67).
T1 construct: His-tag (from pET100 vector) (N); made in house; host or cells: E. coli BL21 (DE3) Star
T1 sequence (Q8VM67 1-511): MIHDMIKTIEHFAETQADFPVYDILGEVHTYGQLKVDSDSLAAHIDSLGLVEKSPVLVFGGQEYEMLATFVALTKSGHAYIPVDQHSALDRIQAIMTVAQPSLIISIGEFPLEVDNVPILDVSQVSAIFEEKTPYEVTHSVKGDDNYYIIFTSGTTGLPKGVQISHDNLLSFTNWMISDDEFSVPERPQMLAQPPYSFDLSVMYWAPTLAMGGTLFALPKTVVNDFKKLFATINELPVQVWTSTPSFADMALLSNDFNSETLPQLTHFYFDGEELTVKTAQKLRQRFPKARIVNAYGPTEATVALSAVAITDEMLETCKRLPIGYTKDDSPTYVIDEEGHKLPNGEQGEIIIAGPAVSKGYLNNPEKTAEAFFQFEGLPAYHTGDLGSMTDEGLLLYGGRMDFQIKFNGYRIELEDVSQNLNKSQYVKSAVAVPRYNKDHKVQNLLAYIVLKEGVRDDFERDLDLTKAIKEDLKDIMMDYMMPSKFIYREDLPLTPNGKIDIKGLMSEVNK
Description: DltA HTS assays (luminescent / fluorescent), inhibition of DltA enzymatic activity in vitro.
Conditions: not given
In kind it is biochemical, S. agalactiae. An excerpt:
The compounds effect on DltA enzyme has been based on the measure of the inhibition of DltA activity in vitro.
To this end, a recombinant protein Dlta was expressed and purified after cloning of the gene of S. agalatiae as described below:
Methods 1: DltA HTS Assays
The assay described below makes use of dithiothreitol (DTT) instead of DltC as reactive thiol in the catalyzed reaction. In fact, the inventors have shown that DTT, but also Coenzyme A and N-Acetylcysteamine are all thiols able to replace efficiently DltC. In addition, contrary to the prior art, radioactivity is not used: all the assays are based either on luminescent ATP detection, or on fluorescent AMP detection. They are easily amenable to miniaturized formats and fast readouts as required by HTS.
The assay buffer “AB” contains 50 mM Hepes pH8.0, 10 mM MgCl2, 50 mM KCl, 0.012% Triton-X100. The following components are added in a white polystyrene Costar plate up to a final volume of 30 μL: 3 μL DMSO, or inhibitor dissolved in DMSO and 27 μL DltA enzyme and DTT in AB. After 30 min of pre-incubation at room temperature, 30 μL of Substrates mix in AB are added in each well to a final volume of 60 μL. This reaction mixture is then composed of 10 nM DltA (produced in house from S. agalactiae), 0.5 mM D-Alanine (Sigma), 0.5 μM ATP (Sigma) and 1 mM DTT (Biochemika) in assay buffer. After 90 min of incubation at room temperature, 30 μL of the revelation mix are added to a final volume of 90 μL, including the following constituents at the respective final concentrations: 2 nM luciferase (Sigma), 30 μM D-luciferin (Sigma), 100 μM N-acetylcysteamine (Aldrich). Luminescence intensity is immediately measured on an Analyst-HT (Molecular Devices) and converted into inhibition percentages. For IC50 (Inhibitory Concentration 50%) determinations, the inhibitor is added at 6 to 10 different concentrations, and the related inhibitions are fitted to a classical langmuir equilibrium model using XLFIT (IDBS).
The assay buffer “AB” contains 50 mM Hepes pH8.0, 10 mM MgCl2, 50 mM KCl, 0.012% Triton-X100. The following components are added in a black polystyrene Costar plate up to a final volume of 50 μL: 5 μL DMSO, or inhibitor dissolved in DMSO and 45 μL DltA enzyme and DTT in AB. After 30 min of pre-incubation at room temperature, 50 μL of Substrates-revelation mix in AB are added in each well to a final volume of 100 μL. This reaction mixture is then composed of 5 nM DltA (produced in house from S. agalactiae), 0.5 mM D-Alanine (Sigma), 10 μM ATP (Sigma), 1 mM DTT (Biochemika), 10 nM Adenylate kinase (produced in house), 5 u/mL Pyruvate Kinase (Sigma), 50 μM phosphoenolpyruvate (Sigma), 5 u/mL Lactate deshydrogenase (Sigma) and 3 μM NADH (Sigma) in assay buffer. Fluorescence intensity of NADH (λex=360 nm, λem=520 nm) is immediately measured kinetically by a Fluostar Optima (BMG). Inhibition percentages are derived from fitted initial velocities. For IC50 determinations, the inhibitor is added at 6 to 10 different concentrations, and the related inhibitions are fitted to a classical langmuir equilibrium model using XLFIT (IDBS). FIG. 2 represents the data obtained using this method.
The capacity of compounds to inhibit DltA enzymatic activity was assessed using the DltA HTS assays described in method 1.
Turning to `COc1ccc(-c2cc(-c3cnc4c(NCCCO)nc5cc(C(F)(F)F)ccc5n34)[nH]n2)cc1` [Example 31, 3-({1-[1H-pyrazol-3-(4-methoxyphenyl)-5-yl]-7-(trifluoromethyl)imidazo[1,2-a]quinoxalin-4-yl}amino)propan-1-ol], the IC50 was 790 nM.

The same assay, now with this note: Table 1; DltA inhibition, HTS assays of method 1; read-out: IC50.
Consider `OCCCNc1nc2cc(C(F)(F)F)ccc2n2c(-c3cc(-c4ccccc4)n[nH]3)cnc12` [Example 32, 3-({1-[3-phenyl-1H-pyrazol-5-yl]-7-(trifluoromethyl)imidazo[1,2-a]quinoxalin-4-yl}amino)propan-1-ol], for which the 50% inhibitory concentration (IC50) stood at 42 nM.
On the same count and under the same terms, the same measure for `OCCCNc1nc2cc(C(F)(F)F)ccc2n2c(-c3cc(-c4cccnc4)n[nH]3)cnc12` [Example 33, 3-({1-[3-(3-pyridinyl)-1H-pyrazol-5-yl]-7-(trifluoromethyl)imidazo[1,2-a]quinoxalin-4-yl}amino)propan-1-ol]: 25 nM.
`OCCCNc1nc2cc(C(F)(F)F)ccc2n2c(-c3cn(Cc4ccccc4)nn3)cnc12` [Example 34]: the IC50 came out at 580 nM.
As to `OCCCNc1nc2cc(C(F)(F)F)ccc2n2c(-c3cc(O)n[nH]3)cnc12` [Example 37, 3-({1-(3-hydroxy-1H-pyrazol-5-yl)-7-(trifluoromethyl)imidazo[1,2-a]quinoxalin-4-yl}amino)propan-1-ol], the IC50 is 160 nM.
For the compound `OCCCNc1nc2cc(C(F)(F)F)ccc2n2c(-c3[nH]ncc3Cl)cnc12` [Example 38, 3-({1-(4-chloro-1H-pyrazol-5-yl)-7-(trifluoromethyl)imidazo[1,2-a]quinoxalin-4-yl}amino)propan-1-ol], the half-maximal inhibitory concentration (IC50) was determined as 13.5 nM.
On the same count and under the same terms, the same measure for `Cc1cn[nH]c1-c1cnc2c(NCCCO)nc3cc(C(F)(F)F)ccc3n12` [Example 40, 3-({1-[4-methyl-1H-pyrazol-5-yl]-7-(trifluoromethyl)imidazo[1,2-a]quinoxalin-4-yl}amino)propan-1-ol]: 57 nM; for `O=Cc1cnc2c(NCCCO)nc3cc(C(F)(F)F)ccc3n12` [Example 41, 4-[(3-hydroxypropyl)amino]-7-(trifluoromethyl)imidazo[1,2-a]quinoxaline-1-carbaldehyde]: 4600 nM.
On to `OCCCNc1nc2cc(C(F)(F)F)ccc2n2c(CO)cnc12` [Example 42, 3-{[1-(hydroxymethyl)-7-(trifluoromethyl)imidazo[1,2-a]quinoxalin-4-yl]amino}propan-1-ol], for which the IC50 was 1100 nM.
As for `CNC(=O)NCc1cnc2c(NCCCO)nc3cc(C(F)(F)F)ccc3n12` [Example 43, 1-({4-[(3-hydroxypropyl)amino]-7-(trifluoromethyl)imidazo[1,2-a]quinoxalin-1-yl}methyl)-3-methylurea], the IC50 was found to be 1200 nM.
Same read-out and setting: the same measure for `OCCCNc1nc2cc(C(F)(F)F)ccc2n2c(CNCc3ccccc3)cnc12` [Example 44, 3-({1-[(benzylamino)methyl]-7-(trifluoromethyl)imidazo[1,2-a]quinoxalin-4-yl}amino)propan-1-ol]: 6100 nM; for `NCc1cnc2c(NCCCO)nc3cc(C(F)(F)F)ccc3n12` [Example 45, 3-{[1-(aminomethyl)-7-(trifluoromethyl)imidazo[1,2-a]quinoxalin-4-yl]amino}propan-1-ol]: 5500 nM.
Same read-out and setting: the same measure for `OCCCNc1nc2cc(C(F)(F)F)ccc2n2c(-c3ncc[nH]3)cnc12` [Example 46, 3-{[1-(1H-imidazol-2-yl)-7-(trifluoromethyl)imidazo[1,2-a]quinoxalin-4-yl]amino}propan-1-ol]: 3500 nM; for `O=C(O)c1cc(-c2cnc3c(NCCCO)nc4cc(C(F)(F)F)ccc4n23)[nH]n1` [Example 48, 5-{4-[(3-hydroxypropyl)amino]-7-(trifluoromethyl)imidazo[1,2-a]quinoxalin-1-yl}-1H-pyrazole-3-carboxylic acid]: 5000 nM.
Turning to `OCCCNc1nc2cc(C(F)(F)F)ccc2n2c(-c3cc(CO)n[nH]3)cnc12` [Example 49, 3-({1-[3-(hydroxymethyl)-1H-pyrazol-5-yl]-7(trifluoromethyl)imidazo[1,2-a]quinoxalin-4-yl}amino)propan-1-ol], the IC50 is 16 nM.
On to `OCCCNc1nc2cc(C(F)(F)F)c(Br)cc2n2ccnc12` [Example 52, 3-(8-bromo-7-trifluoromethyl-imidazo[1,2-a]quinoxalin-4-ylamino)-propan-1-ol], for which the IC50 turned out to be 8700 nM.
For the compound `OCCCNc1nc2cc(C(F)(F)F)c(CNc3ccccn3)cc2n2ccnc12` [Example 53, 3-({8-[(pyridin-2-ylamino)methyl]-7-(trifluoromethyl)imidazo[1,2-a]quinoxalin-4-yl}amino)propan-1-ol], the IC50 is 510 nM.
In the case of `OCCCNc1nc2cc(-c3ccccc3C(F)(F)F)ccc2n2c(-c3ccn[nH]3)cnc12` [Example 54, 3-{[1-(1H-pyrazol-5-yl)-7-(2-[trifluoromethyl]phenyl)imidazo[1,2-a]quinoxalin-4-yl]amino}propan-1-ol], the concentration for half-maximal inhibition (IC50) stood at 22 nM.
For the compound `Cc1n[nH]c(-c2cnc3c(NCCCO)nc4cc(OC(F)(F)F)ccc4n23)n1` [Example 55], the IC50 is 25 nM.
Turning to `OCCCNc1nc2cc(C(F)(F)F)c(NCc3ccccc3)cc2n2ccnc12` [Example 56, 3-{[8-(benzylamino)-7-(trifluoromethyl)imidazo[1,2-a]quinoxalin-4-yl]amino}propan-1-ol], the IC50 came to 810 nM.
The same measure, in the same setting: the same measure for `OCCCNc1nc2cc(F)c(F)cc2n2ccnc12` [Example 57, 3-[(7,8-difluoroimidazo[1,2-a]quinoxalin-4-yl)amino]propan-1-ol]: 57000 nM; for `O=P(O)(O)OCCCNc1nc2cc(C(F)(F)F)ccc2n2c(-c3ccn[nH]3)cnc12` [Example 58, Phosphoric acid mono-{3-[1-(2H-pyrazol-3-yl)-7-trifluoromethyl-imidazo[1,2-a]quinoxalin-4-ylamino]-propyl}ester, disodium salt]: 19000 nM.

Usually IC50 stands for the concentration at which inhibition is half-maximal.
